In patent US20240033232A1, “New use of (R)-B2-agonists in treatment of sepsis and acute respiratory distress syndrome” (priority 2021, published 2024):

What was measured:
[1] = tested on: patients with acute respiratory distress Syndrome (ARDS) caused by sepsis; details: cited from earlier work
[2] = tested on: sepsis by high doses LPS challenge; experiment: LPS sepsis, mortality of mice; format: in vivo; details: for survival: high doses LPS challenge; for mortality: high doses LPS challenge (100% mortality without treatment)
[3] = tested on: inflammatory cells, such as WBC, neutrophils and monocytes; experiment: Systemic inflammatory cells in sepsis; format: in vivo
[4] = tested on: macrophages from the peritoneal fluid; experiment: LPS induced proliferation and polarization of macrophages from the peritoneal fluid; format: in vivo; details: for polarized M1 macrophages or M2 macrophages: in comparison of sepsis condition
[5] = tested on: INFs, IL-1B, IL-2,4,6,10,12, TNFa and MCP; experiment: Cytokine storm in sepsis, production and release of cytokines
[6] = tested on: inducible NO (iNO) and another ROS; experiment: Inducible NO, ROS and coagulation disorder induced by LPS sepsis
[7] = tested on: tissue of lung, heart or kidney; experiment: Pathological examination of organs in sepsis; format: in vivo
[8] = tested on: sepsis and sepsis related ARDS; experiment: Overall effect on sepsis and sepsis related ARDS; details: in vivo
NF-κB and MARK pathways = NF-κB and MARK pathways activated by LPS in sepsis
[9] = tested on: bronchial hyper-responsiveness induced by LPS sepsis; experiment: Lung function and bronchial hyper-responsiveness in LPS sepsis; format: in vivo; details: for bronchial hyper-responsiveness: induced by LPS sepsis

Compound | survival [2] | mortality [2] | increase of inflammatory cells (WBC, neutrophils, monocytes) [3] | polarized M1 macrophages or M2 macrophages [4] | production and release of cytokines [5] | coagulating system disorder such as disseminated intravascular coagulation (DIC) [6] | over production of inducible NO (iNO) and another ROS [6] | pathological changes (inflammatory infiltration, edema, lesions, apoptosis) in lung, heart or kidney [7] | effect on sepsis and sepsis related ARDS [8] | NF-κB and MARK pathways (expression or phosphorylation) (NF-κB and MARK pathways) | bronchial hyper-responsiveness [9] | further results
CC(C)(C)NCC(O)c1ccc(O)c(CO)c1 (racemic) [salbutamol] |  |  |  |  |  |  |  |  |  |  |  | ICU mortality and hospital mortality in comparing with placebo [1]: significantly increased; increase of mortality in comparing with placebo ([1]; salbutamol infusion): 11%
CC(C)(C)NC[C@H](O)c1ccc(O)c(CO)c1 [(R)-salbutamol] | most of animal survived | greatly reduced | significantly inhibite | significant reduction | significantly reduced | prevent | significantly prevent and inhibit | greatly ameliorated and improved | very effective |  |  | number of macrophages from the peritoneal fluid ([4]; LPS induced): significantly reduced toward normal level
CC(C)(C)NC[C@H](O)c1cc(O)cc(O)c1 [(R)-terbutaline] | most of animal survived | greatly reduced | significantly inhibite |  | significantly reduced | prevent | significantly prevent and inhibit | greatly ameliorated and improved | very effective | significantly inhibited | significantly ameliorated | arterial oxygenation ([9]; sepsis): maintain a normal arterial oxygenation; deterioration of lung function ([9]; sepsis): prevent or restored the deterioration
CC(C)(C)NC[C@@H](O)c1ccc(O)c(CO)c1 [(S)-salbutamol] |  |  |  |  |  |  |  | further worsened | increase the risk of sepsis or worsen sepsis |  |  | 
OCc1cc([C@H](O)CNCCCCCCOCCCCc2ccccc2)ccc1O [(S)-salmeterol] |  |  |  | further increased |  |  |  |  |  |  |  | 
CC(C)(C)NC[C@@H](O)c1cc(O)cc(O)c1 [(S)-terbutaline] |  |  | further increased |  |  |  |  | further worsened | increase the risk of sepsis or worsen sepsis | further enhanced | further worsened | 
